Assay results from US20230165831A1, “METHOD AND COMPOSITION FOR RENDERING CANCER CELLS SUSCEPTIBLE TO TREATMENT BY TARGETED ONCOGENETIC DRIVERS” (IMPACT BIOLIFE SCIENCE, INC., priority 2021, published 2023).
Like-named read-outs stand apart in the source and are kept apart here.

Experiments:
[1] = tested on: prostate adenocarcinoma line LNCap cells; test: CTG (CellTiter-Glo) cell viability assay, 6×6 combo matrix, 72 h, LNCaP; details: Homo sapiens, LNCaP;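 further: luminescence signal read after adding CellTiter-Glo reagent, with cells exposed to compounds for 72 h at 37 °C under 5% CO2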
Procedure: (§1) To measure the cell inhibition effect of compounds and synergy effect of test articles on ten (10) cell lines using standard CTG assay.
(§2) 7) Using complete cell medium, adjust the volume of the suspension to achieve a cell concentration.
(§3) b. A549, T47D, SK-OV-3, MKN45, SK-Hep-1, HT-29, Capan-1, 786-O and LNCaP cell line, for compounds and vehicle groups, the seeding density of cell lines is 3000 cells/80 µL per well. For blank groups, add 100 µL medium. For PBS groups, add 100 µL PBS.
(§4) 8) Incubate the U87MG, A549, T47D, SK-OV-3, MKN45, SK-Hep-1, HT-29, Capan-1, 786-O and LNCaP cells overnight at 37° C./5% CO2.
(§5) Solid compound of cis-platinum was solubilized in PBS to a stock solution of 3.333 mM.
(§6) Final volume is 100 µL per well at this point.
(§7) 5) Incubate the plates at 37° C./5% CO2 for 72 hours.
(§8) 1) Incubate the plates at room temperature and away from light for 30 minutes.
(§9) 3) Add 100 µL /well of CellTiter-Glo® Reagent in each well. Avoid light.
(§10) 4) Mix contents for 2 minutes on an orbital shaker.
(§11) 5) Incubate plate at room temperature for 10 minutes to stabilize the luminescent signal.
6) Read plates in Envision.

[2] = tested on: lung adenocarcinoma line A549 cells; test: CTG (CellTiter-Glo) cell viability assay, 6×6 combo matrix, 72 h, A549; details: for Relatively Cell inhibition of vehicle control(%): A549;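 on all read-outs here: luminescent ATP readout with CellTiter-Glo after compound exposure, used to assess growth inhibition and combination synergy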
Procedure: as §1, §2
(§12) A549, T47D, SK-OV-3, MKN45, SK-Hep-1, HT-29, Capan-1, 786-O and LNCaP cell line, for compounds and vehicle groups, the seeding density of cell lines is 3000 cells/80 µL per well. For blank groups, add 100 µL medium. For PBS groups, add 100 µL PBS.
as §4, §5, §6, §7, §8, §9, §10, §11
6) Read plates in Envision.

[3] = tested on: Liver cancer line SK-HEP-1 cells; test: CTG (CellTiter-Glo) cell viability assay, 6×6 combo matrix, 72 h, SK-Hep-1; details: Homo sapiens;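 further: luminescent signal read after 72 h compound exposure at 37 °C under 5% CO2, with medium-only wells serving as blank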
[4] = tested on: colorectal cancer line HT29 cells; test: CTG (CellTiter-Glo) cell viability assay, 6×6 combo matrix, 72 h, HT29; details: for Relatively Cell inhibition of vehicle control(%): HT29;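 on all read-outs here: cells exposed to compounds for 72 hours at 37 °C under 5% CO2, then viability read as luminescence after adding CellTiter-Glo Reagent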
[5] = tested on: Liver cancer line SK-HEP-1 cells;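 further: luminescent signal read after 72 h compound exposure at 37 °C under 5% CO2, with medium-only wells serving as blank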
[6] = tested on: ovarian cancer line SK-OV3 cells; test: CTG (CellTiter-Glo) cell viability assay, 6×6 combo matrix, 72 h, SK-OV-3; details: for Relatively Cell inhibition of vehicle control(%): SK-OV-3;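 on all read-outs here: luminescent signal read after CellTiter-Glo addition, cells exposed to compounds for 72 h at 37 °C under 5% CO2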
Procedure: as §1, §2, §12, §4, §5, §6, §7, §8, §9, §10, §11
6) Read plates in Envision.

[7] = tested on: kidney cancer line 786-O cells;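 further: luminescence read-out after adding CellTiter-Glo reagent, with cells incubated at 37 °C under 5% CO2 during compound exposure, part of a ten cell line synergy study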
Procedure: as §1, §2, §3, §4, §5, §6, §7, §8, §9, §10, §11
6) Read plates in Envision.

[8] = tested on: breast cancer line T47D cells; test: CTG (CellTiter-Glo) cell viability assay, 6×6 combo matrix, 72 h, T47D; details: Homo sapiens;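 further: luminescence read-out after 72 h at 37 °C under 5% CO2, with medium-only wells as blanks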
[9] = tested on: breast cancer line T47D cells;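 further: luminescence read-out after 72 h at 37 °C under 5% CO2, with medium-only wells as blanks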
[10] = tested on: glioblastoma line U87MG cells; test: CTG (CellTiter-Glo) cell viability assay, 6×6 combo matrix, 72 h, U87MG; details: Homo sapiens, U-87 MG;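 further: U87MG cells seeded at 2000 per well, exposed 72 h, viability read by CellTiter-Glo luminescence, inhibition expressed relative to vehicle-treated wells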
[11] = tested on: pancreatic cancer line Capan-1 cells; test: CTG (CellTiter-Glo) cell viability assay, 6×6 combo matrix, 72 h, Capan-1; assay type: cell-based; details: for Relatively Cell inhibition of vehicle control(%): Capan-1
How it was run: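 Capan-1 cells were seeded at 3000 cells per well and incubated overnight at 37 °C/5% CO2. They were then treated with compounds in a 6×6 combination matrix for 72 h at 37 °C/5% CO2. Viability was read by CellTiter-Glo luminescence to assess inhibition and synergy.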

[12] = tested on: kidney cancer line 786-O cells; test: CTG (CellTiter-Glo) cell viability assay, 6×6 combo matrix, 72 h, 786-O; details: for Relatively Cell inhibition of vehicle control(%): 786-O;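 on all read-outs here: luminescence read-out after adding CellTiter-Glo reagent, with cells incubated at 37 °C under 5% CO2 during compound exposure, part of a ten cell line synergy study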
Procedure: as §1, §2, §3, §4, §5, §6, §7, §8, §9, §10, §11
6) Read plates in Envision.

[13] = read-out: Relatively Cell inhibition of vehicle control(%), topotecan 16 nM only (myricetin plate)
[14] = read-out: Relatively Cell inhibition of vehicle control(%), topotecan 80 nM only (myricetin plate)
[15] = read-out: Relatively Cell inhibition of vehicle control(%), topotecan 400 nM only (myricetin plate)
[16] = read-out: Relatively Cell inhibition of vehicle control(%), topotecan 2000 nM only (myricetin plate)
[17] = read-out: Relatively Cell inhibition of vehicle control(%), topotecan 10000 nM only (myricetin plate)
[18] = Homo sapiens, A549, read-out: Relatively Cell inhibition of vehicle control(%)
[19] = Homo sapiens, HT-29, read-out: Relatively Cell inhibition of vehicle control(%)
[20] = Homo sapiens, 786-0, read-out: Relatively Cell inhibition of vehicle control

Structure (SMILES): CC[C@@]1(O)C(=O)OCc2c1cc1n(c2=O)Cc2cc3c(CN(C)C)c(O)ccc3nc2-1 [topotecan]
- inhibition at […] [1, 13]: 17.6%
- inhibition at 0.08 µM ([1]; read-out: Relatively Cell inhibition of vehicle control(%), topotecan 80 nM only (LB-1 plate)): 37.8%
- inhibition at 0.08 µM [1, 14]: 40.1%
- inhibition at 0.4 µM ([1]; read-out: Relatively Cell inhibition of vehicle control(%), topotecan 400 nM only (LB-1 plate)): 55.9%
- inhibition at 0.4 µM [1, 15]: 60%
- inhibition at 2 µM ([1]; read-out: Relatively Cell inhibition of vehicle control(%), topotecan 2000 nM only (LB-1 plate)): 82.1%
- inhibition at 2 µM [1, 16]: 83.6%
- inhibition at 10 µM ([1]; read-out: Relatively Cell inhibition of vehicle control(%), topotecan 10000 nM only (LB-1 plate)): 84.8%
- inhibition at 10 µM [1, 17]: 87.5%
- inhibition at 0.08 µM [2, 18]: 34.9%
- inhibition at 0.4 µM [2, 18]: 60%
- inhibition at 2 µM [2, 18]: 79.7%
- inhibition at 10 µM [2, 18]: 94.4%
- Relatively Cell inhibition of vehicle control(%) ([2]; Top 16 nM only): -0.68%
- Relatively Cell inhibition of vehicle control(%) ([2]; Top 80 nM only): 37.94%
- Relatively Cell inhibition of vehicle control(%) ([2]; Top 400 nM only): 62.21%
- Relatively Cell inhibition of vehicle control(%) ([2]; Top 2000 nM only): 80.57%
- Relatively Cell inhibition of vehicle control(%) ([2]; Top 10000 nM only): 93.99%
- inhibition at […] ([3]; SK-HEP1, read-out: Relatively Cell inhibition of vehicle control, topotecan 16 nM only (myricetin table)): -4.24%
- inhibition at 0.08 µM ([3]; SK-HEP1, read-out: Relatively Cell inhibition of vehicle control, topotecan 80 nM only (LB-1 table)): 9.52%
- inhibition at 0.08 µM ([3]; SK-HEP1, read-out: Relatively Cell inhibition of vehicle control, topotecan 80 nM only (myricetin table)): 16%
- inhibition at 0.4 µM ([3]; SK-HEP1, read-out: Relatively Cell inhibition of vehicle control, topotecan 400 nM only (LB-1 table)): 35.4%
- inhibition at 0.4 µM ([3]; SK-HEP1, read-out: Relatively Cell inhibition of vehicle control, topotecan 400 nM only (myricetin table)): 37.7%
- inhibition at 2 µM ([3]; SK-HEP1, read-out: Relatively Cell inhibition of vehicle control, topotecan 2000 nM only (LB-1 table)): 70.3%
- inhibition at 2 µM ([3]; SK-HEP1, read-out: Relatively Cell inhibition of vehicle control, topotecan 2000 nM only (myricetin table)): 74.2%
- inhibition at 10 µM ([3]; SK-HEP1, read-out: Relatively Cell inhibition of vehicle control, topotecan 10000 nM only (LB-1 table)): 98.6%
- inhibition at 10 µM ([3]; SK-HEP1, read-out: Relatively Cell inhibition of vehicle control, topotecan 10000 nM only (myricetin table)): 99.1%
- inhibition at 1 µM ([3]; SK-HEP1, read-out: inhibition rate, 1000 nM topotecan only (footnote of the LB-1 table)): 98.6%
- inhibition at 0.08 µM [4, 19]: 26.1%
- inhibition at 0.4 µM [4, 19]: 64.8%
- inhibition at 2 µM [4, 19]: 93.2%
- inhibition at 10 µM [4, 19]: 79.4%
- Relatively Cell inhibition of vehicle control(%) ([4]; Top 16 nM only (Myr 0)): 11.50%
- Relatively Cell inhibition of vehicle control(%) ([4]; Top 80 nM only (Myr 0)): 21.57%
- Relatively Cell inhibition of vehicle control(%) ([4]; Top 400 nM only (Myr 0)): 71.12%
- Relatively Cell inhibition of vehicle control(%) ([4]; Top 2000 nM only (Myr 0)): 94.54%
- Relatively Cell inhibition of vehicle control(%) ([4]; Top 10000 nM only (Myr 0)): 82.42%
- inhibition [5]: -0.38%
- inhibition at 1 µM ([6]; Homo sapiens, SK-OV-3, read-out: inhibition rate): 93.9%
- Relatively Cell inhibition of vehicle control(%) ([6]; Top 16 nM only (myricetin matrix)): 21.67%
- Relatively Cell inhibition of vehicle control(%) ([6]; Top 80 nM only (LB-1 matrix)): 68.74%
- Relatively Cell inhibition of vehicle control(%) ([6]; Top 80 nM only (myricetin matrix)): 67.77%
- Relatively Cell inhibition of vehicle control(%) ([6]; Top 400 nM only (LB-1 matrix)): 83.70%
- Relatively Cell inhibition of vehicle control(%) ([6]; Top 400 nM only (myricetin matrix)): 82.50%
- Relatively Cell inhibition of vehicle control(%) ([6]; Top 2000 nM only (LB-1 matrix)): 90.55%
- Relatively Cell inhibition of vehicle control(%) ([6]; Top 2000 nM only (myricetin matrix)): 90.97%
- Relatively Cell inhibition of vehicle control(%) ([6]; Top 10000 nM only (myricetin matrix)): 94.18%
- inhibition [7]: 2.61%
- inhibition at […] ([8]; read-out: Relatively Cell inhibition of vehicle control(%), T47D, 16 nM topotecan only (myricetin 0)): 12.5%
- inhibition at 0.08 µM ([8]; read-out: Relatively Cell inhibition of vehicle control(%), T47D, 80 nM topotecan only (LB-1 0)): 29.6%
- inhibition at 0.08 µM ([8]; read-out: Relatively Cell inhibition of vehicle control(%), T47D, 80 nM topotecan only (myricetin 0)): 36.9%
- inhibition at 0.4 µM ([8]; read-out: Relatively Cell inhibition of vehicle control(%), T47D, 400 nM topotecan only (LB-1 0)): 45.7%
- inhibition at 0.4 µM ([8]; read-out: Relatively Cell inhibition of vehicle control(%), T47D, 400 nM topotecan only (myricetin 0)): 53.9%
- inhibition at 2 µM ([8]; read-out: Relatively Cell inhibition of vehicle control(%), T47D, 2000 nM topotecan only (LB-1 0)): 58.3%
- inhibition at 2 µM ([8]; read-out: Relatively Cell inhibition of vehicle control(%), T47D, 2000 nM topotecan only (myricetin 0)): 62.7%
- inhibition at 10 µM ([8]; read-out: Relatively Cell inhibition of vehicle control(%), T47D, 10000 nM topotecan only (LB-1 0)): 57.7%
- inhibition at 10 µM ([8]; read-out: Relatively Cell inhibition of vehicle control(%), T47D, 10000 nM topotecan only (myricetin 0)): 61.9%
- inhibition [9]: 2.49%
- inhibition at […] ([10]; read-out: Relatively Cell inhibition of vehicle control(%), topotecan 16 nM only): 15.6%
- inhibition at […] [10, 13]: 11.4%
- inhibition at 0.08 µM ([10]; read-out: Relatively Cell inhibition of vehicle control(%), topotecan 80 nM only): 49.3%
- inhibition at 0.08 µM [10, 14]: 51.6%
- inhibition at 0.4 µM ([10]; read-out: Relatively Cell inhibition of vehicle control(%), topotecan 400 nM only): 64.1%
- inhibition at 0.4 µM [10, 15]: 66.2%
- inhibition at 2 µM ([10]; read-out: Relatively Cell inhibition of vehicle control(%), topotecan 2000 nM only): 73.5%
- inhibition at 2 µM [10, 16]: 76.3%
- inhibition at 10 µM ([10]; read-out: Relatively Cell inhibition of vehicle control(%), topotecan 10000 nM only): 82.1%
- inhibition at 10 µM [10, 17]: 83.4%
- inhibition at […] ([11]; Homo sapiens, CAPAN-1, topotecan 16 nM only, read-out: Relatively Cell inhibition of vehicle control): 21%
- inhibition at 0.08 µM ([11]; Homo sapiens, CAPAN-1, topotecan 80 nM only, read-out: Relatively Cell inhibition of vehicle control): 53.9%
- inhibition at 0.4 µM ([11]; Homo sapiens, CAPAN-1, topotecan 400 nM only, read-out: Relatively Cell inhibition of vehicle control): 74.3%
- inhibition at 2 µM ([11]; Homo sapiens, CAPAN-1, topotecan 2000 nM only, read-out: Relatively Cell inhibition of vehicle control): 88.4%
- inhibition at 10 µM ([11]; Homo sapiens, CAPAN-1, topotecan 10000 nM only, read-out: Relatively Cell inhibition of vehicle control): 78.1%
- Relatively Cell inhibition of vehicle control(%) ([11]; Top 16 nM only): 13.17%
- Relatively Cell inhibition of vehicle control(%) ([11]; Top 80 nM only): 54.35%
- Relatively Cell inhibition of vehicle control(%) ([11]; Top 400 nM only): 74.56%
- Relatively Cell inhibition of vehicle control(%) ([11]; Top 2000 nM only): 88.92%
- Relatively Cell inhibition of vehicle control(%) ([11]; Top 10000 nM only): 81.26%
- inhibition at 0.08 µM [12, 20]: 68.1%
- inhibition at 0.4 µM [12, 20]: 82.5%
- inhibition at 2 µM [12, 20]: 91.7%
- inhibition at 10 µM [12, 20]: 93.9%
- Relatively Cell inhibition of vehicle control(%) ([12]; Top 80 nM only (LB-1 0)): 68.14%
- Relatively Cell inhibition of vehicle control(%) ([12]; Top 400 nM only (LB-1 0)): 83.15%
- Relatively Cell inhibition of vehicle control(%) ([12]; Top 2000 nM only (LB-1 0)): 91.65%
- Relatively Cell inhibition of vehicle control(%) ([12]; Top 10000 nM only (LB-1 0)): 93.59%
